# Experiments:
# [1] = system: mono‐ and dicotyledonous weed plants; test: Greenhouse test, pre-emergence; type: in vivo; conditions: highest application rate tested; data not shown
# AtDHBPS [2] = target: T1, AtDHBPS (Arabidopsis thaliana, UniProt P47924); test: Thermal stability shift analysis; type: binding; conditions: 6.5 μM AtDHBPS
# T1 construct: made in house; host or cells: Escherichia coli BL21(DE3)
# T1 sequence (P47924 with tags, fused parts or gaps): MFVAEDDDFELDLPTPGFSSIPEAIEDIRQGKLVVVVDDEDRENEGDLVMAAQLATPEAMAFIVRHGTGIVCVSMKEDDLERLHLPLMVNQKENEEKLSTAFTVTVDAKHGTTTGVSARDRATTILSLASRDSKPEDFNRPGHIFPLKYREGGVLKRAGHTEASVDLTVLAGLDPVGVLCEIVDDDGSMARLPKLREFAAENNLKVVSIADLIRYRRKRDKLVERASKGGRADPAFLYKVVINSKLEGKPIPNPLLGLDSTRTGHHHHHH
# Experimental: AtDHBPS melting curves were determined in 96‐well microtiter plates in a Roche Light Cycler 480. The assay mixture contained 50 mM HEPES pH 7.5, 75 mM NaCl, 2.5 mM MgCl2, 7.5x SYPRO Orange and 6.5 μM AtDHBPS in a total volume of 20 μL. A linear temperature gradient from 25 to 85 °C with a ramping of 3.25 °C min^−1 was applied. Melting temperatures were determined from plots of the first derivative of the fluorescence intensity versus temperature.
# AtDHBPS [3] = target: T1, AtDHBPS; test: DHBPS activity assay; type: biochemical
# Experimental: (§1) DHBPS activity assays were out carried in 96‐well microtiter plates using a modification of the procedure previously described.[18] The reaction mixture contained 100 mM MES (2‐morpholinoethanesulfonic acid) buffer pH 6.5, 20 mM MgCl2, 20 mM D‐ribose‐5‐phosphate (Sigma‐Aldrich R7750), 0.02% Tween‐20, 0.2 mg BSA, 0.5 μg of spinach phosphoriboisomerase (Sigma‐Aldrich P9752) and DHBPS enzyme in a final volume of 110 μL. Assays were initiated by adding enzyme and terminated after 120 min incubation at rt by the addition of 90 μL of a solution of 3.5% α‐naphthol and 0.2% creatine in 2 N NaOH. After an additional 45 min incubation at rt the absorbance was determined at 540 nm. The pI50‐value for inhibition by phosphonothrixin (1) was determined with the XLFit Excel add‐in version 4.3.1 curve fitting program of ID Business Solutions Limited. […] Reaction velocities were fitted to the Michaelis–Menten equation with the XLFit curve fitting program.
# ZtDHBPS = ZtDHBPS (Zymoseptoria tritici, UniProt F9X7Z9); test: DHBPS activity assay; type: biochemical
# Sequence of ZtDHBPS (F9X7Z9 1-226): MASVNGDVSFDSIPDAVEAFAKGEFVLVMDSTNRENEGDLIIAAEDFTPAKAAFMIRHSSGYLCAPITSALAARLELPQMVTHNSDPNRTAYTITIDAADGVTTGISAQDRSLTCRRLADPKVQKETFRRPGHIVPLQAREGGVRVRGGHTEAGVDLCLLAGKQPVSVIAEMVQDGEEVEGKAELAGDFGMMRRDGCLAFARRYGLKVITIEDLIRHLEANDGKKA
# Experimental: as §1
# [4] = system: mono‐ and dicotyledonous weed plants; test: Greenhouse test, post-emergence, phenotype of affected plants; type: in vivo
# Experimental: (§2) Seeds of mono‐ and dicotyledonous weed plants were sown in plastic pots of 7 cm diameter filled with a clayey silt soil substrate. The plants were maintained for the preparatory phase of germination and initial growth in the greenhouse under optimum growth conditions. Phosphonothrixin (1) was prepared for application as an emulsion concentrate and diluted together with 0.2% agrotin (a polyfunctional non‐ionic additive) in water corresponding to a spray volume of approximately 600 L ha^−1. At a growth stage of 2 to 4 true leaves the test plants were sprayed and then placed in the greenhouse for 3 weeks under optimum growth conditions. Subsequently, the effect of phosphonothrixin (1) was assessed visually relative to the untreated controls resulting in herbicidal effects (%) ranging from 0% (no effect = untreated control) to 100% (complete control = died‐off ).
# [5] = system: Amaranthus retroflexus (AMARE); test: Herbicidal greenhouse screening, post-emergence; type: in vivo; conditions: visual, 3 weeks after spraying
# Experimental: as §2
# [6] = system: Cyperus esculentus (CYPES); test: Herbicidal greenhouse screening, post-emergence; type: in vivo; conditions: visual, 3 weeks after spraying
# Experimental: as §2
# [7] = system: Brassica napus (winter rape, BRSNW); test: Herbicidal greenhouse screening, post-emergence; type: in vivo; conditions: visual, 3 weeks after spraying
# Experimental: as §2
# [8] = system: Lolium multiflorum (LOLMU); test: Herbicidal greenhouse screening, post-emergence; type: in vivo; conditions: visual, 3 weeks after spraying
# Experimental: as §2
# [9] = system: Abutilon theophrasti (ABUTH); test: Herbicidal greenhouse screening, post-emergence; type: in vivo; conditions: visual, 3 weeks after spraying
# Experimental: as §2
# [10] = system: Alopecurus myosuroides (ALOMY); test: Herbicidal greenhouse screening, post-emergence; type: in vivo; conditions: visual, 3 weeks after spraying
# Experimental: as §2
# [11] = system: Echinochloa crus‐galli (ECHCG); test: Herbicidal greenhouse screening, post-emergence; type: in vivo; conditions: visual, 3 weeks after spraying
# Experimental: as §2
# [12] = system: Triticum aestivum (spring wheat, TRZAS); test: Herbicidal greenhouse screening, post-emergence; type: in vivo; conditions: visual, 3 weeks after spraying
# Experimental: as §2
# Veronica persica (VERPE) = test: Herbicidal greenhouse screening, post-emergence; type: in vivo; conditions: visual, 3 weeks after spraying
# Experimental: as §2
# Zea mays (ZEAMX) = test: Herbicidal greenhouse screening, post-emergence; type: in vivo; conditions: visual, 3 weeks after spraying
# Experimental: as §2
# [13] = system: Matricaria inodora (MATIN); test: Herbicidal greenhouse screening, post-emergence; type: in vivo; conditions: visual, 3 weeks after spraying
# Experimental: as §2
# Oryza sativa (ORYSA) = test: Herbicidal greenhouse screening, post-emergence; type: in vivo; conditions: visual, 3 weeks after spraying
# Experimental: as §2
# Avena fatua (AVEFA) = test: Herbicidal greenhouse screening, post-emergence; type: in vivo; conditions: visual, 3 weeks after spraying
# Experimental: as §2
# Viola tricolor (VIOTR) = test: Herbicidal greenhouse screening, post-emergence; type: in vivo; conditions: visual, 3 weeks after spraying
# Experimental: as §2
compound,measurement,setting,value
CC(=O)C(O)(CO)CP(=O)(O)O (centres unmarked) [phosphonothrixin],pre-emergence herbicidal activity,[1],failed to show any pre‐emergence activity
same,ΔTm at 10 µM,"AtDHBPS [2]; compound 10 μM, read-out: shift of the melting point (deltaTm) of AtDHBPS",4 °C
same,deltaTm(max),AtDHBPS [2]; from plot of deltaTm vs. concentration,22.7 ± 0.6 °C
same,Kd,"AtDHBPS [2]; from plot of deltaTm vs. concentration, read-out: Kd-value for binding to AtDHBPS",31.1 ± 2.8 µM
same,IC50,AtDHBPS [3],58 ± 11 µM
same,Ki,AtDHBPS [3],16.6 ± 5 µM
same,type of inhibition of AtDHBPS,AtDHBPS [3]; with respect to the substrate,competitive inhibitor
same,IC50,ZtDHBPS,19 µM
same,phenotype of affected plants,[4],bleaching phenotype
same,"herbicidal effect rating, post-emergence",[5]; 80 g/ha,2 (‘2’ = 40–59% inhibition)
same,"herbicidal effect rating, post-emergence",[5]; 320 g/ha,3 (‘3’ = 60–79% inhibition)
same,"herbicidal effect rating, post-emergence",[5]; 1280 g/ha,4 (‘4’ = 80–90% inhibition)
same,"herbicidal effect rating, post-emergence",[5]; 5120 g/ha,4 (‘4’ = 80–90% inhibition)
same,"herbicidal effect rating, post-emergence",[6]; 320 g/ha,2 (‘2’ = 40–59% inhibition)
same,"herbicidal effect rating, post-emergence",[6]; 1280 g/ha,3 (‘3’ = 60–79% inhibition)
same,"herbicidal effect rating, post-emergence",[6]; 5120 g/ha,4 (‘4’ = 80–90% inhibition)
same,"herbicidal effect rating, post-emergence",[7]; 80 g/ha,2 (‘2’ = 40–59% inhibition)
same,"herbicidal effect rating, post-emergence",[7]; 320 g/ha,3 (‘3’ = 60–79% inhibition)
same,"herbicidal effect rating, post-emergence",[7]; 1280 g/ha,4 (‘4’ = 80–90% inhibition)
same,"herbicidal effect rating, post-emergence",[7]; 5120 g/ha,4 (‘4’ = 80–90% inhibition)
same,"herbicidal effect rating, post-emergence",[8]; 80 g/ha,1 (‘1’ = 20–39% inhibition)
same,"herbicidal effect rating, post-emergence",[8]; 320 g/ha,3 (‘3’ = 60–79% inhibition)
same,"herbicidal effect rating, post-emergence",[8]; 1280 g/ha,4 (‘4’ = 80–90% inhibition)
same,"herbicidal effect rating, post-emergence",[8]; 5120 g/ha,4 (‘4’ = 80–90% inhibition)
same,"herbicidal effect rating, post-emergence",[9]; 80 g/ha,2 (‘2’ = 40–59% inhibition)
same,"herbicidal effect rating, post-emergence",[9]; 320 g/ha,3 (‘3’ = 60–79% inhibition)
same,"herbicidal effect rating, post-emergence",[9]; 1280 g/ha,4 (‘4’ = 80–90% inhibition)
same,"herbicidal effect rating, post-emergence",[9]; 5120 g/ha,4 (‘4’ = 80–90% inhibition)
same,"herbicidal effect rating, post-emergence",[10]; 320 g/ha,1 (‘1’ = 20–39% inhibition)
same,"herbicidal effect rating, post-emergence",[10]; 1280 g/ha,3 (‘3’ = 60–79% inhibition)
same,"herbicidal effect rating, post-emergence",[10]; 5120 g/ha,4 (‘4’ = 80–90% inhibition)
same,"herbicidal effect rating, post-emergence",[11]; 80 g/ha,1 (‘1’ = 20–39% inhibition)
same,"herbicidal effect rating, post-emergence",[11]; 320 g/ha,2 (‘2’ = 40–59% inhibition)
same,"herbicidal effect rating, post-emergence",[11]; 1280 g/ha,4 (‘4’ = 80–90% inhibition)
same,"herbicidal effect rating, post-emergence",[11]; 5120 g/ha,4 (‘4’ = 80–90% inhibition)
same,"herbicidal effect rating, post-emergence",[12]; 320 g/ha,1 (‘1’ = 20–39% inhibition)
same,"herbicidal effect rating, post-emergence",[12]; 1280 g/ha,4 (‘4’ = 80–90% inhibition)
same,"herbicidal effect rating, post-emergence",[12]; 5120 g/ha,4 (‘4’ = 80–90% inhibition)
same,"herbicidal effect rating, post-emergence",Veronica persica (VERPE); 80 g/ha,3 (‘3’ = 60–79% inhibition)
same,"herbicidal effect rating, post-emergence",Veronica persica (VERPE); 320 g/ha,3 (‘3’ = 60–79% inhibition)
same,"herbicidal effect rating, post-emergence",Veronica persica (VERPE); 1280 g/ha,4 (‘4’ = 80–90% inhibition)
same,"herbicidal effect rating, post-emergence",Veronica persica (VERPE); 5120 g/ha,4 (‘4’ = 80–90% inhibition)
same,"herbicidal effect rating, post-emergence",Zea mays (ZEAMX); 320 g/ha,2 (‘2’ = 40–59% inhibition)
same,"herbicidal effect rating, post-emergence",Zea mays (ZEAMX); 1280 g/ha,3 (‘3’ = 60–79% inhibition)
same,"herbicidal effect rating, post-emergence",Zea mays (ZEAMX); 5120 g/ha,4 (‘4’ = 80–90% inhibition)
same,"herbicidal effect rating, post-emergence",[13]; 80 g/ha,2 (‘2’ = 40–59% inhibition)
same,"herbicidal effect rating, post-emergence",[13]; 320 g/ha,3 (‘3’ = 60–79% inhibition)
same,"herbicidal effect rating, post-emergence",[13]; 1280 g/ha,4 (‘4’ = 80–90% inhibition)
same,"herbicidal effect rating, post-emergence",[13]; 5120 g/ha,4 (‘4’ = 80–90% inhibition)
same,"herbicidal effect rating, post-emergence",Oryza sativa (ORYSA); 1280 g/ha,1 (‘1’ = 20–39% inhibition)
same,"herbicidal effect rating, post-emergence",Oryza sativa (ORYSA); 5120 g/ha,2 (‘2’ = 40–59% inhibition)
same,"herbicidal effect rating, post-emergence",Avena fatua (AVEFA); 80 g/ha,2 (‘2’ = 40–59% inhibition)
same,"herbicidal effect rating, post-emergence",Avena fatua (AVEFA); 320 g/ha,3 (‘3’ = 60–79% inhibition)
same,"herbicidal effect rating, post-emergence",Avena fatua (AVEFA); 1280 g/ha,4 (‘4’ = 80–90% inhibition)
same,"herbicidal effect rating, post-emergence",Avena fatua (AVEFA); 5120 g/ha,4 (‘4’ = 80–90% inhibition)
same,"herbicidal effect rating, post-emergence",Viola tricolor (VIOTR); 80 g/ha,1 (‘1’ = 20–39% inhibition)
same,"herbicidal effect rating, post-emergence",Viola tricolor (VIOTR); 320 g/ha,3 (‘3’ = 60–79% inhibition)
same,"herbicidal effect rating, post-emergence",Viola tricolor (VIOTR); 1280 g/ha,4 (‘4’ = 80–90% inhibition)
same,"herbicidal effect rating, post-emergence",Viola tricolor (VIOTR); 5120 g/ha,4 (‘4’ = 80–90% inhibition)

# Reference: paper PMC12268802, “The herbicidal natural product phosphonothrixin is an inhibitor of the riboflavin biosynthetic enzyme L‐3,4‐dihydroxy‐2‐butanone‐4‐phosphate synthase” (Pest Management Science, 2025)
